Experimental data taken from patent US10765114B2, “4-amino-6-(pyridyl and 2-substitutedphenyl)-picolinates and 6-amino-2-(pyridyl and 2-substitutedphenyl)-pyrimidine-4-carboxylates and their use as herbicides” (Dow AgroSciences LLC, priority 2013, dated 2020).
Read-outs that look alike come from different tables or passages of the source.

Tests used:
[1] = system: Key Broadleaf Weed and Crop Species; test: Post-Emergent Test II (Table 5); type: in vivo; settings: post-emergence, 336 h; for pest or weed control at 70 g/ha: application rate 70 (kg ai/ha; footnote: g ai/ha); for pest or weed control at 140 g/ha: application rate 140 (kg ai/ha; footnote: g ai/ha)
Outline: (§1)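 Plants grown in a greenhouse (~15 h photoperiod, 23-29° C day) to first or second true leaf stage were sprayed post-emergence at 187 L/ha with compound in acetone/DMSO-based aqueous spray containing crop oil concentrate and surfactant, applied at a high rate plus ½× to 1/16× serial rates. Injury was scored visually 14 days later, 0-100% versus untreated plants.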

[2] = system: Key Grass and Sedge Weeds as well as Grass Crops; test: Post-Emergent Test II (Table 6); type: in vivo; settings: post-emergence, 336 h, 14 days after application; for pest or weed control at 70 g/ha: 70 g ai/ha; for pest or weed control at 140 g/ha: 140 g ai/ha
Outline: as §1

[3] = Abutilon theophrasti, ABUTH: velvetleaf (Abutilon theophrasti), read-out: Visual Growth Reduction (%) 14 Days After Application ABUTH
[4] = Amaranthus retroflexus, AMARE: redroot pigweed (Amaranthus retroflexus), read-out: Visual Growth Reduction (%) 14 Days After Application AMARE
[5] = Brassica napus, BRSSS: oilseed rape, canola (Brassica napus), read-out: Visual Growth Reduction (%) 14 Days After Application BRSSS
[6] = Chenopodium album, CHEAL: lambsquarters (Chenopodium album), read-out: Visual Growth Reduction (%) 14 Days After Application CHEAL
[7] = Euphorbia heterophylla, EPHHL: wild poinsettia (Euphorbia heterophylla), read-out: Visual Growth Reduction (%) 14 Days After Application EPHHL
[8] = Helianthus annuus, HELAN: sunflower (Helianthus annuus), read-out: Visual Growth Reduction (%) 14 Days After Application HELAN
[9] = Viola tricolor, VIOTR: wild pansy (Viola tricolor), read-out: Visual Growth Reduction (%) 14 Days After Application VIOTR
[10] = CYPSS, read-out: Visual Growth Reduction (%) 14 Days After Application CYPSS
[11] = DIGSA: crabgrass (Digitaria sanguinalis), read-out: Visual Growth Reduction (%) 14 Days After Application DIGSA
[12] = ECHSS, read-out: Visual Growth Reduction (%) 14 Days After Application ECHSS
[13] = ORYSS (crop), read-out: Visual Growth Reduction (%) 14 Days After Application ORYSS
[14] = SETFA: giant foxtail (Setaria faberi), read-out: Visual Growth Reduction (%) 14 Days After Application SETFA
[15] = SORVU: grain sorghum (Sorghum vulgare), read-out: Visual Growth Reduction (%) 14 Days After Application SORVU
[16] = TRZSS (crop), read-out: Visual Growth Reduction (%) 14 Days After Application TRZSS
[17] = ZEAMX: maize, corn (Zea mays), read-out: Visual Growth Reduction (%) 14 Days After Application ZEAMX

| Compound | pest or weed control at 70 g/ha [1, 3] | pest or weed control at 140 g/ha [1, 3] | pest or weed control at 70 g/ha [1, 4] | pest or weed control at 140 g/ha [1, 4] | pest or weed control at 70 g/ha [1, 5] | pest or weed control at 140 g/ha [1, 5] | pest or weed control at 70 g/ha [1, 6] | pest or weed control at 140 g/ha [1, 6] | pest or weed control at 70 g/ha [1, 7] | pest or weed control at 140 g/ha [1, 7] | pest or weed control at 70 g/ha [1, 8] | pest or weed control at 140 g/ha [1, 8] | pest or weed control at 70 g/ha [1, 9] | pest or weed control at 140 g/ha [1, 9] | pest or weed control at 70 g/ha [2, 10] | pest or weed control at 140 g/ha [2, 10] | pest or weed control at 70 g/ha [2, 11] | pest or weed control at 140 g/ha [2, 11] | pest or weed control at 70 g/ha [2, 12] | pest or weed control at 140 g/ha [2, 12] | further results |
| --- | --- | --- | --- | --- | --- | --- | --- | --- | --- | --- | --- | --- | --- | --- | --- | --- | --- | --- | --- | --- | --- |
| COC(=O)c1nc(-c2ccc(Cl)c(F)c2OC)cc(N)c1Cl [Compound 20] | 95 to 100% | 95 to 100% | 95 to 100% | 95 to 100% | 95 to 100% | 95 to 100% | 95 to 100% | 95 to 100% | 0 to 29% | 0 to 29% | 85 to 94% | 95 to 100% | 95 to 100% | 95 to 100% | 30 to 44% | 45 to 59% | 0 to 29% | 45 to 59% | 60 to 74% | 75 to 84% | pest or weed control at 70 g/ha [2, 13]: 0 to 29%; pest or weed control at 140 g/ha [2, 13]: 0 to 29%; pest or weed control at 70 g/ha [2, 14]: 30 to 44%; pest or weed control at 140 g/ha [2, 14]: 60 to 74%; pest or weed control at 70 g/ha [2, 15]: 0 to 29%; pest or weed control at 140 g/ha [2, 15]: 30 to 44%; pest or weed control at 70 g/ha [2, 16]: 0 to 29%; pest or weed control at 140 g/ha [2, 16]: 30 to 44%; pest or weed control at 70 g/ha [2, 17]: 85 to 94%; pest or weed control at 140 g/ha [2, 17]: 85 to 94% |
| COC(=O)c1nc(-c2ccc(Br)nc2)c(F)c(N)c1Cl [Compound 22, methyl 4-amino-6′-bromo-5-chloro-3-fluoro-[2,3′-bipyridine]-6-carboxylate] | 95 to 100% | 95 to 100% | 95 to 100% | 95 to 100% | 95 to 100% | 95 to 100% | 95 to 100% | 95 to 100% | 95 to 100% | 95 to 100% | 85 to 94% | 95 to 100% | 95 to 100% | 95 to 100% | 95 to 100% | 95 to 100% | 85 to 94% | 85 to 94% | 85 to 94% | 95 to 100% | pest or weed control at 70 g/ha [2, 13]: 30 to 44%; pest or weed control at 140 g/ha [2, 13]: 0 to 29%; pest or weed control at 70 g/ha [2, 14]: 85 to 94%; pest or weed control at 140 g/ha [2, 14]: 85 to 94%; pest or weed control at 70 g/ha [2, 15]: 95 to 100%; pest or weed control at 140 g/ha [2, 15]: 95 to 100%; pest or weed control at 70 g/ha [2, 16]: 85 to 94%; pest or weed control at 140 g/ha [2, 16]: 95 to 100%; pest or weed control at 70 g/ha [2, 17]: 85 to 94%; pest or weed control at 140 g/ha [2, 17]: 95 to 100% |
| COC(=O)c1nc(-c2ccc(I)c(F)c2C)cc(N)c1Cl [Compound 25, methyl 4-amino-3-chloro-6-(3-fluoro-4-Iodo-2-methylphenyl)picolinate] | 95 to 100% | 95 to 100% | 95 to 100% | 95 to 100% | 60 to 74% | 75 to 84% | 85 to 94% | 85 to 94% | 0 to 29% | 0 to 29% | 60 to 74% | 75 to 84% | 0 to 29% | 0 to 29% | 0 to 29% | 0 to 29% | 0 to 29% | 0 to 29% | 0 to 29% | 0 to 29% | pest or weed control at 70 g/ha [2, 13]: 0 to 29%; pest or weed control at 140 g/ha [2, 13]: 0 to 29%; pest or weed control at 70 g/ha [2, 14]: 0 to 29%; pest or weed control at 140 g/ha [2, 14]: 0 to 29%; pest or weed control at 70 g/ha [2, 15]: 0 to 29%; pest or weed control at 140 g/ha [2, 15]: 0 to 29%; pest or weed control at 70 g/ha [2, 16]: 0 to 29%; pest or weed control at 140 g/ha [2, 16]: 0 to 29%; pest or weed control at 70 g/ha [2, 17]: 0 to 29%; pest or weed control at 140 g/ha [2, 17]: 0 to 29% |
| COC(=O)c1nc(-c2ccc(Cl)c(F)c2CO)cc(N)c1Cl [Compound 29, Methyl 4-amino-3-chloro-6-(4-chloro-3-fluoro-2-(hydroxymethyl)phenyl)picolinate] | 0 to 29% | 0 to 29% | 0 to 29% | 0 to 29% | 0 to 29% | 0 to 29% | 85 to 94% | 85 to 94% | 0 to 29% | 0 to 29% | 0 to 29% | 0 to 29% | 0 to 29% | 0 to 29% | 0 to 29% | 0 to 29% | 0 to 29% | 0 to 29% | 0 to 29% | 0 to 29% | pest or weed control at 70 g/ha [2, 13]: 0 to 29%; pest or weed control at 140 g/ha [2, 13]: 0 to 29%; pest or weed control at 70 g/ha [2, 14]: 0 to 29%; pest or weed control at 140 g/ha [2, 14]: 0 to 29%; pest or weed control at 70 g/ha [2, 15]: 0 to 29%; pest or weed control at 140 g/ha [2, 15]: 0 to 29%; pest or weed control at 70 g/ha [2, 16]: 0 to 29%; pest or weed control at 140 g/ha [2, 16]: 0 to 29%; pest or weed control at 70 g/ha [2, 17]: 0 to 29%; pest or weed control at 140 g/ha [2, 17]: 0 to 29% |
